Here are results for 4 molecules from patent US12441775B2, “BCL-W polypeptides and mimetics for treating or preventing chemotherapy-induced peripheral neuropathy and hearing loss” (Dana-Farber Cancer Institute, Inc., priority 2016, dated 2025).

The test has as its system axons of E15 DRG sensory neurons. In words: Axonal degeneration assay in compartmented chamber cultures (degeneration index). It counts as cell-based, rat. The method, then: Cell culture. Compartmented chamber (Campenot) cultures were prepared as described (see, e.g., Fenstermacher et al., Springer Protocols: Neuromethods, 103:105-124 (2015)), with modifications. Briefly, DRGs from embryonic day 15 (E15) rats of either sex were dissected and trypsinized. DRGs (1.2×10^5 cells) were plated in the center compartment of a Teflon divider (Camp10, Tyler Research; Campenot, 1982) affixed to a p35 culture dish coated with growth factor reduced Matrigel basement membrane (BD Biosciences) 1:45 in DMEM. Cultures were maintained in media consisting of Neurobasal (Invitrogen) with 2% B27 supplement (Invitrogen), 1% penicillin-streptomycin, 1% GlutaMAX (Life Technologies), 0.08% glucose, and 0.3 μM cytosine arabinoside (AraC) at 37° C., 7.5% CO2; BDNF+NGF (PeproTech) were added to the cell body compartment at a concentration of 10 ng/ml and to the axon compartment at a concentration of 100 ng/ml for 2d. On day 3, media was replaced and the AraC was omitted. On day 5, neurotrophins were removed from the cell body compartment and reduced to 1 ng/ml in the axon compartments for 3-5 days. […] For calpain inhibition experiments, 20 μM calpain inhibitor III (VWR) and paclitaxel were added simultaneously to distal axon compartment.
Axonal degeneration assay. Compartmented chamber cultures were fixed at room temperature with 4% PFA diluted 1:2 in media for 10 min, then undiluted 4% PFA for an additional 20 min. Cultures were permeabilized with 0.1% TritonX-100 for 10 min, blocked in 3% BSA and 0.1% Triton X-100 for 1 hour at room temperature, and incubated with mouse anti-Tuj1 (1:400; clone Tuj1; Covance) overnight at 4° C. Cultures were then incubated with goat anti-mouse AlexaFluor (1:1000; Invitrogen) for 1 hour at room temperature and counterstained with DAPI. Images of distal axon tips were obtained using a 40× air objective, and axonal degeneration was quantified as a degeneration index, as previously described (Cosker et al., Neuroscience, 33:5195-5207 (2013)). Apoptosis analysis was carried out on the same cultures by taking images in the cell body compartment and counting total and condensed nuclei in NIH ImageJ software by an observer blind to condition.
Protein and peptide introduction. Recombinant His-tagged Bclw, Bcl2, and BclxL proteins (R&D Systems) or control β-galactosidase protein were introduced into cell bodies or axons of compartmented chamber cultures as described (e.g., Cosker et al., Nature Neuroscience, 19:690-696 (2016)). Briefly, 1 μg/μ1 protein was introduced into cultures using 2 μl Chariot reagent (Active Motif). To confirm expression of His-tagged proteins, cell bodies and axons were lysed in nonionic detergent, and protein lysates were separated as above and blotted with the following antibodies: anti-His (1:1000; Novagen) and anti-pan-actin (1:1000; Cell Signaling Technology). FITC-tagged SAHB peptides (BH4-Bclw, BH4-Bcl2, and BH4-BclxL; stock solutions 1 mM in DMSO) were introduced into cell bodies or axons using 350 ng peptide and 2 μl of Chariot reagent diluted 1:10 in water. Control was no peptide with 2 μl of 1:10 diluted Chariot. To confirm peptide expression, cultures were processed for axonal degeneration assay as above, and FITC immunofluorescence was examined with a 40× air objective. Paclitaxel was added to cultures 1 hour after protein or peptide transfection.

Where [1] appears, read: His-tagged recombinant protein transfected into axons.
Setting [2] is: protein introduced into cell bodies instead of axons.

“Bcl2: Recombinant His-tagged Bcl2 protein (R&D Systems) introduced by protein transfection”: the “effect on paclitaxel-induced axon degeneration” value (shortened to “effect”) under setting [1] is “neither BclxL nor Bcl2 prevented degeneration” and the “effect” value under setting [2] is “failed to inhibit paclitaxel-induced degeneration”.

Turning to “BclxL: Recombinant His-tagged BclxL protein (R&D Systems) introduced by protein transfection”, the “effect” value by setting is: under setting [1], “neither BclxL nor Bcl2 prevented degeneration”; under setting [2], “failed to inhibit paclitaxel-induced degeneration”.

As to calpain inhibitor III, the “effect” value (20 μM to axons, added with paclitaxel) is “prevented paclitaxel-induced degeneration”.

B1: Bclw: Recombinant His-tagged Bclw protein (R&D Systems) introduced by protein transfection (protein, UniProt Q92843 2-193, looked up)
Bcl-2-like protein 2: ATPASAPDTRALVADFVGYKLRQKGYVCGAGPGEGPAADPLHQAMRAAGDEFETRFRRTFSDLAAQLHVTPGSAQQRFTQVSDELFQGGPNWGRLVAFFVFGAALCAESVNKEMEPLVGQVQEWMVAYLETQLADWIHSSGGWAEFTALYGDGALEEARRLREGNWASVRTVLTGAVALGALVTVGAFFASK
modifications: His tag
notes: Recombinant His-tagged Bclw protein (R&D Systems) introduced by protein transfection
For the molecule B1, the “effect” value was “completely prevented paclitaxel-induced axon degeneration” under setting [1] and “failed to inhibit paclitaxel-induced degeneration” under setting [2].
